Assay: xn = mol fraction of the nth substance listed

CN(C)C=O + Cc1ccccc1
Conditions	viscosity [mPa·s]
293.15 K, 101 kPa, x1 = 0.0501	0.592
293.15 K, 101 kPa, x1 = 0.1001	0.607
293.15 K, 101 kPa, x1 = 0.22	0.641
293.15 K, 101 kPa, x1 = 0.3122	0.668
293.15 K, 101 kPa, x1 = 0.4002	0.693
293.15 K, 101 kPa, x1 = 0.5002	0.721
293.15 K, 101 kPa, x1 = 0.6111	0.751
293.15 K, 101 kPa, x1 = 0.7003	0.775
293.15 K, 101 kPa, x1 = 0.8122	0.805
293.15 K, 101 kPa, x1 = 0.9002	0.828
298.15 K, 101.3 kPa, x1 = 0.1224	0.584
298.15 K, 101.3 kPa, x1 = 0.2414	0.612
298.15 K, 101.3 kPa, x1 = 0.3485	0.639
298.15 K, 101.3 kPa, x1 = 0.4031	0.654
298.15 K, 101.3 kPa, x1 = 0.5545	0.699
298.15 K, 101.3 kPa, x1 = 0.657	0.723
298.15 K, 101.3 kPa, x1 = 0.7413	0.742
298.15 K, 101.3 kPa, x1 = 0.8336	0.764
298.15 K, 101.3 kPa, x1 = 0.9129	0.781
303.15 K, 101.3 kPa, x1 = 0.1224	0.55
303.15 K, 101.3 kPa, x1 = 0.2414	0.576
303.15 K, 101.3 kPa, x1 = 0.3485	0.601
303.15 K, 101.3 kPa, x1 = 0.4031	0.615
303.15 K, 101.3 kPa, x1 = 0.5545	0.657
303.15 K, 101.3 kPa, x1 = 0.657	0.68
303.15 K, 101.3 kPa, x1 = 0.7413	0.698
303.15 K, 101.3 kPa, x1 = 0.8336	0.718
303.15 K, 101.3 kPa, x1 = 0.9129	0.735
303.15 K, 101.33 kPa, x1 = 0.1037	0.542
303.15 K, 101.33 kPa, x1 = 0.1731	0.556
303.15 K, 101.33 kPa, x1 = 0.2947	0.581
303.15 K, 101.33 kPa, x1 = 0.3985	0.602
303.15 K, 101.33 kPa, x1 = 0.4729	0.618
303.15 K, 101.33 kPa, x1 = 0.6004	0.645
303.15 K, 101.33 kPa, x1 = 0.7147	0.67
303.15 K, 101.33 kPa, x1 = 0.7974	0.688
303.15 K, 101.33 kPa, x1 = 0.8981	0.712
308.15 K, 101.3 kPa, x1 = 0.1224	0.518
308.15 K, 101.3 kPa, x1 = 0.2414	0.541
308.15 K, 101.3 kPa, x1 = 0.3485	0.565
308.15 K, 101.3 kPa, x1 = 0.4031	0.578
308.15 K, 101.3 kPa, x1 = 0.5545	0.617
308.15 K, 101.3 kPa, x1 = 0.657	0.638
308.15 K, 101.3 kPa, x1 = 0.7413	0.655
308.15 K, 101.3 kPa, x1 = 0.8336	0.674
308.15 K, 101.3 kPa, x1 = 0.9129	0.69
313.15 K, 101.3 kPa, x1 = 0.1224	0.49
313.15 K, 101.3 kPa, x1 = 0.2414	0.512
313.15 K, 101.3 kPa, x1 = 0.3485	0.534
313.15 K, 101.3 kPa, x1 = 0.4031	0.547
313.15 K, 101.3 kPa, x1 = 0.5545	0.584
313.15 K, 101.3 kPa, x1 = 0.657	0.604
313.15 K, 101.3 kPa, x1 = 0.7413	0.619
313.15 K, 101.3 kPa, x1 = 0.8336	0.638
313.15 K, 101.3 kPa, x1 = 0.9129	0.653
313.15 K, 101.33 kPa, x1 = 0.1037	0.491
313.15 K, 101.33 kPa, x1 = 0.1731	0.505
313.15 K, 101.33 kPa, x1 = 0.2947	0.522
313.15 K, 101.33 kPa, x1 = 0.3985	0.543
313.15 K, 101.33 kPa, x1 = 0.4729	0.56
313.15 K, 101.33 kPa, x1 = 0.6004	0.583
313.15 K, 101.33 kPa, x1 = 0.7147	0.604
313.15 K, 101.33 kPa, x1 = 0.7974	0.622
313.15 K, 101.33 kPa, x1 = 0.8981	0.643

CCCCCCCCCCCCCC + Clc1ccccc1
viscosity [mPa·s], 101 kPa
Conditions	x1 = 0.1001	x1 = 0.1937	x1 = 0.295	x1 = 0.3916	x1 = 0.494	x1 = 0.5998	x1 = 0.6984	x1 = 0.8002	x1 = 0.9001
298.15 K	0.844	0.945	1.063	1.151	1.266	1.38	1.495	1.609	1.724
303.15 K	0.789	0.877	0.964	1.097	1.161	1.226	1.291	1.354	1.419
308.15 K	0.746	0.819	0.932	0.991	1.041	1.19	1.241	1.219	1.397
